Test results as given in patent publication US6046238A, “Method for treating or preventing the spread of acne vulgaris” (TriStrata, Inc., priority 1999, dated 2000).
In brackets after ≈: the same amount, converted by molar mass. Entries after “also recorded” stand apart in the source; their conditions may differ. Read-outs that look alike come from different tables or passages of the source.

How the values were obtained:
[1] = system: Corynebacterium minutissium; assay: MIC Agar Dilution Test, Corynebacterium minutissium; format: cell-based; details: C. minutissium
Source text: (§1) The following strains of microorganisms were used in Minimum Inhibitory Concentration (MIC) tests for phenyl 2-acetoxyethanoic acid in this example and for benzoyl peroxide, chlorhexidine gluconate and triclosan in the following examples. In total, five strains were used for S. aureus, five strains were used for S. epidermidis, two strains were used for M. sedentarius, three strains were used for M. luteus, two strains were used for B. epidermis, three strains were used for C. minutissium, one strain was used for S. marcescens, three strains were used for P. aeruginosa, four strains were used for E. coli, and thirty-two strains were used for P. acnes.
(§2) Antimicrobial effects were determined based on MIC Agar Dilution Test utilizing Trypticase Soy Agar II (BBL) incorporation plates with and without 10% intralipid (Kabi Pharmacia Inc.). Initially, phenyl 2-acetoxyethanoic acid was prepared as a 2 mg/ml (0.2%) solution in water. This solution with serial dilution was incorporated into the test agar plates. The MIC test gave similar results when the same species but a different strain was used.
(§3) Under the same test conditions described in Example 1, benzoyl peroxide was prepared as a 2.5 mg/ml (0.25%) solution in water. This solution with serial dilution was incorporated into the test agar plates. Typical test results are shown as follows.
(§4) Under the same test conditions described in Example 1, chlorhexidine gluconate was prepared as a 2 mg/ml (0.2%) solution in water. This solution with serial dilution was incorporated into the test agar plates. Typical test results are shown as follows.
(§5) Under the same test conditions described in Example 1, triclosan was prepared as a 10 mg/ml (1%) solution in water. This solution with serial dilution was incorporated into the test agar plates. Typical test results are shown as follows.
(§6) Ten different species of bacteria were used in Minimum Inhibitory Concentration (MIC) tests. The bacteria include S. aureus, S. epidermidis,M. sedentarius, M. luteus, B. epidermis, C. minutissium, S. marcescens, P. aeruginosa, E. coli, and P. acnes. In addition various sources and strains of these bacteria were also included in the tests, and up to 32 different strains of P. acnes were used.
(§7) The test substance selected from phenyl 2-acetoxyethanoic acid, benzoyl peroxide, chlorhexidine gluconate and triclosan was dissolved in water, and the solution with serial dilution was incorporated into the test agar plates. The plates containing different concentrations of test substance were inoculated with a strain of bacterium. MIC is defined as the lowest concentration of the test substance in the plate in which there is no growth of the microorganism.

[2] = system: Pseudomonas aeruginosa; assay: MIC Agar Dilution Test, Pseudomonas aeruginosa; format: cell-based; details: P. aeruginosa
Source text: as §1, §2, §3, §4, §5, §6, §7

[3] = system: Escherichia coli; assay: MIC Agar Dilution Test, Escherichia coli; format: cell-based; details: E. coli
Source text: as §1, §2, §3, §4, §5, §6, §7

[4] = system: Staphylococcus aureus; assay: MIC Agar Dilution Test, Staphylococcus aureus; format: cell-based; details: S. aureus
Source text: as §1, §2, §3, §4, §5, §6, §7

[5] = reversal of corticosteroid unresponsiveness in psoriasis; format: in vivo, human; details: added once daily to corticosteroid twice daily; seven patients
Procedure: To determine the therapeutic responsive effect of an aryl 2-acetoxyethanoicacid against psoriasis seven patient participated in this study. A test composition was prepared by dissolving 1 g phenyl 2-acetoxyethanoic acid or diphenyl 2-acetoxyethanoic acid in 2 ml ethanol. The solution thus obtained was mixed with 60 g petrolatum and 37 g mineral oil. The anhydrous ointment thus formulated was packaged in one-ounce jars.
When the drug unresponsiveness to a corticosteroid occurred, the participating patients were instructed to apply in addition the test composition once daily to the lesions on the left side of the body only. Topical applications of the corticosteroid were continued twice daily to both sides of the body. […] While psoriatic lesions on the right side of the body remained unresponsive to the topical corticosteroid, the lesions on the left side started to clear after 3 to 4 weeks of additional topical application with the composition containing an aryl 2-acetoxyethanoic acid.
At this time the patients were instructed to shift the additional topical application to the lesions on the right side instead of the left side of the body. The psoriatic lesions on the right side of the body began to clear after 3 to 4 weeks of additional topical application with the composition containing aryl 2-acetoxyethanoic acid.

[6] = axillary antiodor effectiveness (treatment); format: in vivo, human; details: 0.5%
Source text: In another study the subjects were instructed not to take a shower in the morning. After the foul odor developed in both axillae, the subjects were instructed to apply the test composition containing 0.5% phenyl 2-acetoxyethanoic acid or diphenyl 2-acetoxyethanoic acid on the left underarm area and the control vehicle on the right underarm area. Topical applications were made once daily for several days.
Usually the left underarm ceased emanating any detectable foul odor after 1 day of topical use. The subjects were instructed at this time to apply the test composition containing 0.5% phenyl 2-acetoxyethanoic acid or diphenyl 2-acetoxyethanoic acid on the right underarm area also. Topical applications were made once daily for several days. The right axilla ceased to emanate any detectable foul odor after 1 to 2 days of topical use.

[7] = prevention and treatment of foot malodor; format: in vivo, human; details: 1% in talc powder
Procedure: A typical test for prophylactic effect in preventing the development of, as well as treatment of, foot malodor was carried out as follows. A test composition in powder form was prepared by mixing 1 g of finely powdered phenyl 2-acetoxyethanoic acid with 99 g of talc powder. The talc powder alone was used as a control vehicle.
A human subject had persistent foot malodor all year round. […] On the first morning, the subject was instructed to spread the test composition lightly on the left foot and also inside the hose. The control vehicle was used on the right foot and inside the hose. […] The subject was then instructed to apply the test composition on both feet the second morning.
A total of six subjects (three females; three males) participated in several studies.
A test composition containing 1% phenyl 2-acetoxyethanoic acid in powder form was prepared by mixing thoroughly 1 g of finely powdered compound with 99 g of talc powder. The talc powder alone was used as a control vehicle. The test composition and the control vehicle were packaged in one-ounce powder containers. The participating subjects were instructed to lightly spread the test composition on the bottom of the left foot and inside the hose or sock on the first morning.
The criteria for ineffectiveness or effectiveness of the test composition were based on presence or absence of malodor as detected by olfactory sense of smell. Both feet were monitored by the subject and at least one other person in the evening.
The subjects were then instructed to apply the test composition on both feet the next morning. […] The same topical applications were continued by all the participants for several days to confirm the above results.

[8] = system: Micrococcus sedentarius; assay: MIC Agar Dilution Test, Micrococcus sedentarius; format: cell-based; details: Kytococcus sedentarius, M. sedentarius
Source text: as §1, §2, §3, §4, §5, §6, §7

[9] = system: Propionibacterium acnes; assay: MIC Agar Dilution Test, Propionibacterium acnes; format: cell-based; details: for MIC: Cutibacterium acnes
Source text: as §1, §2, §3, §4, §5, §6, §7

[10] = 10% intralipid, read-out: MIC Lipid
[11] = no lipid, read-out: MIC No Lipid

With CC(=O)OC(C(=O)O)c1ccccc1 (centres unmarked) [phenyl 2-acetoxyethanoic acid] the MIC [1, 10] was 500 µg/mL (≈ 2570 µM), the MIC [1, 11] was 500 µg/mL (≈ 2570 µM) and the MIC [2, 10] was 1000 µg/mL (≈ 5150 µM). The MIC [2, 11] was 1000 µg/mL (≈ 5150 µM), the MIC [3, 10] was 1000 µg/mL (≈ 5150 µM) and the MIC [3, 11] was 1000 µg/mL (≈ 5150 µM). The MIC [4, 10] was 500 µg/mL (≈ 2570 µM), the MIC [4, 11] was 500 µg/mL (≈ 2570 µM) and the “onset of improvement of psoriatic lesions, left side” value [5] was “began to improve after one week”. The “overall axillary antiodor effectiveness” value ([6]; topical) was “topically effective in eradicating the axillary foul odor”, the “left axilla on continued use” value ([6]; continued, once daily for several days) was “continued to maintain the condition free of any offensive foul odor” and the “time after which left underarm usually ceased emanating any detectable foul odor” value ([6]; no-shower study, left side) was 1 days. The “intensity of foul odor, left underarm” value ([6]; no-shower study, once daily) was “diminished in intensity of foul odor after one to two days of topical application”, the “time after which left underarm ceased emanating any detectable foul odor” value ([6]; Example 6, once daily, one person, left side) was 1 days and the “time after which right axilla ceased to emanate any detectable foul odor” value ([6]; Example 6, right side, formerly vehicle) was 1 days. For the same molecule, the “overall effectiveness against foot malodor” value [7] was “topically effective in preventing the development of and in treating foot malodor; also recorded: topically effective in preventing the development of and was also therapeutically effective for topical treatment of foot malodor”, the “malodor of both feet at the end of the second day” value ([7]; both feet treated) was “produced no detectable malodor” and the “malodor of left foot by the first evening” value ([7]; left foot treated, right foot vehicle) was “produced no detectable malodor in all the participating subjects”. The “malodor on continued application” value ([7]; several days) was “complete suppression of malodor was sustained”, the MIC [8, 10] was 500 µg/mL (≈ 2570 µM) and the MIC [8, 11] was 500 µg/mL (≈ 2570 µM). For the same molecule, the MIC ([9]; P. acnes, 10% intralipid, read-out: MIC Lipid) was 250 µg/mL (≈ 1290 µM), the MIC ([9]; P. acnes, no lipid, read-out: MIC No Lipid) was 250 µg/mL (≈ 1290 µM) and the MIC ([9]; even in the presence of 10% lipid materials, read-out: concentration specifically effective against the growth of P. acnes) was 250 µg/mL. The MIC ([9]; in the presence of 10% lipid materials, read-out: concentration effective against P. acnes) was 250 µg/mL and the “inhibitory effect against P. acnes, compared” value ([9]; with or without lipid materials, same test conditions as comparators) was “most active and effective compound against P. acnes”.
